These results are taken from patent US7611863B2, “Selective staining of biomembranes using voltage-sensitive dyes” (Max-Planck-Gesellschaft zur Foerderung der Wissenschaften …, priority 2004, dated 2009).

Assay [1] relates to phosphatase expressing cells. As to the kind of experiment: Destaining of cells after enzyme induced staining. The format is cell-based. As for the experimental part: FIG. 18. Destaining. Cells were incubated with Di-12P-ASPBS for 30 seconds, then the medium containing the dye precursor was removed and the cells were washed twice in buffer containing no dye. Fluorescence images were recorded with excitation filter 450/50 nm, emission filter 510 nm, dichroic mirror 505 nm. A. Brightfield image of cells and fluorescence images of cells illustrating destaining of the cell membrane by diffusion of the dye into the bulk medium. B. Time course of destaining. The maximum fluorescence intensity of the membrane is plotted vs. time.
Destaining. […] Cells were incubated with Di-12P-ASPBS for 30 seconds, then the medium containing the dye precursor was removed and the cells were washed twice in buffer containing no dye.

Assay [2] deals with Madine Darby Canine Kidney (MDCK) cells. As to the kind of experiment: Enzyme induced staining of transiently transfected MDCK cells. Format: cell-based. To be noted: 200 nM. As for the experimental part:
FIG. 19. Genetically Targeted Staining of MDCK cells with Di-10P-ASPBS and Di-12P-ASPBS. (A) Cells were cotransfected with the membrane-bound phosphatase construct termed ArtPlasMA AP and H2B-GFP, a nucleus-localized transfection marker. Brightfield image and fluorescence images before (−1 sec) and after addition of 200 nM Di-10P-ASPBS. (B) Analogous to row A, but using 200 nM Di-12P-ASPBS. (C) Control experiment. Cells were transfected only with H2B-GFP and incubated with 200 nM Di-12P-ASPBS. Brightfield image and fluorescence images before (−1 sec) and after addition of dye (8 min). (D) Control experiment. Cells were cotransfected with the membrane-bound phosphatase construct termed ArtPlasMA AP and H2B-GFP and incubated with the dye Di-10A-ASPBS. Brightfield image and fluorescence image before (−1 sec) and after addition of dye (20 sec).
Two control experiments were performed: In the first control, cells were transfected only with the transfection marker H2B-GFP. […] In addition, no difference in staining intensity between transfected and untransfected cells can be discerned (FIG. 19C). In the second control experiment, cells were cotransfected with the phosphatase construct and the transfection marker.

Assay [3] in a line: Enzyme induced staining of liposomes. The format is biochemical. To be noted: 100 μM lipid; 0.43 μM and 4.31 μM substrate. As for the experimental part: Enzyme induced staining of liposomes. We studied enzymatic hydrolysis of Di-4-ASPP phosphate in the presence of large unilamellar POPC vesicles (LUVs) to observe enzyme induced staining. Tris-NaCl Buffer was used for the preparation of all solutions. To 550 μl of a 200 μM solution of POPC vesicles in a cuvette, an equal volume of Di-4-ASPP phosphate was added to yield concentrations between 0.1 μM and 10.7 μM. 10 μl of PLAP (18.6 DEA Units/ml) were added and the suspension was mixed by pipetting. The cuvette was held at 25° C. Fluorescence (excitation 488 nm, emission 600 nm) was recorded before and after addition of the enzyme with a resolution of 1 sec. Initial velocities were determined from the slope of the first 10 to 20 seconds of the fluorescence traces.
Enzyme Induced staining of liposomes. Now, we combined the two previous experiments. The dye phosphate was hydrolysed by phosphatase in the presence of lipid vesicles. The reaction was observed by the enhancement of fluorescence due to the enhanced binding of the dye alcohol to the lipid. The fluorescence intensity of a vesicle suspension (100 μM lipid) was recorded before and after the addition of the phosphatase with 0.43 μM and 4.31 μM Di-4-ASPP phosphate. […] This corresponds to the ratio of the fluorescence lipid titration data of alcohol and phosphate at 100 μM lipid.

For assay [4], the target named is alkaline phosphatase from the human placenta (PLAP) (Homo sapiens, UniProt P05187). As to the kind of experiment: Enzymatic dye hydrolysis (HPLC, isothermal titration calorimetry). The format is biochemical. As for the experimental part: Enzyme kinetics with ITC. We performed enzyme kinetic measurements with Di-4-ASPP phosphate as a substrate of PLAP by isothermal titration calorimetry (ITC). We used Tris-NaCl buffer (20 mM Tris, 100 mM NaCl, pH 8.1) without Zn^2+ and Mg^2+ although most alkaline phosphatases depend on these metals for maximum activity. However, divalent cations bind to lipid membranes and induce their aggregation and fusion^25. The pH-value is a compromise between optimal enzymatic activity (at pH 9.8) and compatibility with vesicles and cells. The microcalorimeter (VP-ITC, Microcal, Northampton, Mass., USA) was thermostatted to 25.0° C., with reference power set to 10 μcal/sec and a stirring speed of 310 rpm. The sample cell contained a PLAP solution of 0.19 DEA Units/ml activity and the syringe was filled with a 1 mM solution of Di-4-ASPP phosphate. The reference cell contained buffer only. Different amounts of dye were injected into the sample cell in separate experiments to cover a concentration range from 2 μM to 15 μM. To determine the heats of dilution alone, injections were carried out with pure buffer. For both hydrolysis and dilution, the baseline signal was approximated by linear or polynomial functions and subtracted from the raw signal resulting in a curve with a flat baseline. The dilution signal was subtracted from the signal of the enzymatic reaction to yield the final calorimeter tracing of enzymatic hydrolysis. The molar heat of reaction was obtained by integration. The initial velocities were determined from the average heat of reaction of the first 10 to 30 seconds after the onset of the reaction, using the mean molar heat of reaction as a proportionality constant. […]
Enzymatic dye hydrolysis. […] We evaluated the heat production per unit time that is proportional to the reaction rate, with the molar heat of reaction being the constant of proportionality^38. […] By calibration with that energy, the initial reaction velocity was evaluated.
(ITC needs no label: the signal is the heat of the interaction.)

Sequence of alkaline phosphatase from the human placenta (PLAP) (P05187 23-506): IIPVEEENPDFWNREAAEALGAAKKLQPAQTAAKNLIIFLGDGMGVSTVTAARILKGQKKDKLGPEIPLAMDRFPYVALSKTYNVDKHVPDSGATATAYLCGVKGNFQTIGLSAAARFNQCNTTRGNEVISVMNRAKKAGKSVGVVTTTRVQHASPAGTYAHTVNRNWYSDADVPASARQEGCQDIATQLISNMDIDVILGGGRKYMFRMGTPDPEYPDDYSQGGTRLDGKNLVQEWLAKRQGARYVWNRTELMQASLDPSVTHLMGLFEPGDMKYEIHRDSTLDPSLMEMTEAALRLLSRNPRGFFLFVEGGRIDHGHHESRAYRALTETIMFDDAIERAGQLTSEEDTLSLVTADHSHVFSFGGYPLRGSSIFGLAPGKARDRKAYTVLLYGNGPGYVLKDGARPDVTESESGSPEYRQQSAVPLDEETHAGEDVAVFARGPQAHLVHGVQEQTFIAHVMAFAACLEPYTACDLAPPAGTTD

With Di-12-phosphato-ASPBS [Di-12P-ASPBS], the “membrane leaflet to which the dye binds” value in assay [1] is reported as “binds almost exclusively to the extracellular leaflet”. In addition, the “fluorescence of stained membranes over time after washing” value in assay [1] (diffusion of bound dye to bulk medium) is reported as “the fluorescence intensity of the stained membranes declined”. For the same molecule, in assay [1] (medium removed, washed twice), the “selectivity of staining after 30 seconds incubation and washing” value is “selective staining of phosphatase expressing cells could be observed”. In addition, the “staining of directly adjacent cells” value in assay [2] (after 10 minutes incubation) is “Directly adjacent cells are weakly stained”. The “localization of staining over several minutes” value in assay [2] (cells cotransfected with ArtPlasMA AP and H2B-GFP) was “Staining is well localized even after 10 minutes incubation”. Further, the “staining of control cells without phosphatase” value in assay [2] (transfected only with H2B-GFP) is “only weakly stained”.

With `CCCCN(CCCC)c1ccc(/C=C/c2cc[n+](CCCOP(=O)([O-])O)cc2)cc1` [Di-4-ASPP phosphate], the “enhancement of fluorescence intensity of vesicle suspension after addition of phosphatase” value in assay [3] is on record as “about sixfold”. Moreover, the “acceptance as substrate by PLAP” value in assay [4] (ITC kinetics) is recorded as “accepted by PLAP as a regular substrate”. Besides, the “molar heat of hydrolysis (endothermal)” value in assay [4] (ITC, 25.0° C., Tris-NaCl pH 8.1) came out at 0.263 ± 0.048 kcal/mol. Besides, in assay [4] (after incubation, enzyme removed by ultrafiltration), the “conversion by soluble PLAP (HPLC analysis)” value is reported as “quantitatively converted to Di-4-ASPP alcohol”.
